Test results from publication PMC11489206, “Transport of perfluoroalkyl substances across human induced pluripotent stem cell-derived intestinal epithelial cells in comparison with primary human intestinal epithelial cells and Caco-2 cells” (Archives of Toxicology, 2024).
Like-named read-outs stand apart in the source and are kept apart here. Marks after values point to notes of the source that are not given here.

Key:
[1] = ref Ayehunie et al. (2005); cited from earlier work
[2] = Transport study across EpiIntestinal microtissues; settings: human
Experimental: The human EpiIntestinal small intestinal microtissues, consisting of epithelial cells and an underlying lamina propria containing intestinal fibroblasts, were obtained from MatTek Life Sciences (Ashland, USA). Cell culture inserts (8.8 mm ID) were placed in 12-well plates and cells were maintained in 100 µl maintenance medium (MatTek Life Sciences) in the apical compartment and 5 ml maintenance medium in the basolateral compartment upon arrival. The transport studies were performed 1 day after arrival.
(§1) Transport studies were performed in Caco-2 cells, hiPSC-derived IECs and EpiIntestinal microtissues. To that end, Caco-2 cell layers were differentiated for 21 days and hiPSCs were differentiated into IEC layers for 26 days, as described above. EpiIntestinal microtissues were subjected to transport studies 1 day after arrival. […] For all models, PFAS transport was assessed in apical to basolateral, and basolateral to apical direction using HBSS containing a mixture of PFASs containing 1 µM of each PFAS. See Supplementary Data for a detailed description of the method used for the transport studies of the model compounds and PFASs.
(§2) Prior to exposure to the transport study compounds, the cells were washed with transport medium (HBSS; Sigma). […] 100 µL aliquots were collected from the basolateral compartment and replaced with the same volume HBSS at settled time points (0, 15, 30 and 60 min). For basolateral to apical transport in the EpiIntestinal microtissues, 0.2 mL HBSS was added to the apical compartment and 0.5 mL HBSS containing a mixture of PFASs containing 1 µM of each PFAS, was added to the basolateral compartment. 100 µL aliquots were collected from the apical compartment and replaced with the same volume of HBSS at settled time points (0, 15, 30 and 60 min). For apical to basolateral transport across the Caco-2 cell layers and hiPSC-derived IEC layers, 1.2 mL HBSS was added to the basolateral compartment and 0.4 mL HBSS containing either model compounds (10 µM) or a mixture of PFASs containing 1 µM of each PFAS, was added to the apical compartment. 100 µL aliquots were collected from the basolateral compartment and replaced with the same volume of HBSS at settled time points (0, 7.5, 15, 30 and 60 min for the model compounds with both models and the PFASs with the hiPSC-derived IEC layers and 0, 15, 30 and 60 min for PFASs with the Caco-2 cell layers). For basolateral to apical transport, 0.4 mL HBSS was added to the apical compartment and 1.2 mL HBSS containing 10 µM of the model compounds or a mixture of PFASs containing 1 µM of each PFAS, was added to the basolateral compartment. 100 µL aliquots were collected from the apical compartment and replaced with the same volume of HBSS at settled time points (0, 7.5, 15, 30 and 60 min for the model compounds with both models and the PFASs with the hiPSC-derived IEC layers and 0, 15, 30 and 60 min for PFASs with the Caco-2 cell layers). After 60 minutes, all liquid was collected from the apical and basolateral compartment and the cells were lysed in 200 µL RIPA buffer (Thermo Fisher Scientific), and chemicals were quantified in the different compartments (apical, basolateral and cells) in order to calculate the mass balance.
(§3) The apparent permeability coefficient (Papp, cm/s) was calculated using the following equation: […]
where A is the surface area (cm^2), dQ is the amount of the compound transported (nmol) over the respective time interval dt (s) and C0 is the initial concentration in the donor compartment (µM).

[3] = Transport study across hiPSC-derived IEC layers; settings: human
Experimental: For differentiation into IECs, definitive endoderm cells were subsequently differentiated into intestinal stem cells by changing medium into DMEM/F12 containing 2% fetal bovine serum, 1% GlutaMAX (Gibco) and 250 ng/ml FGF2 (R&D Systems). After 4 days, cells were dissociated using Accutase and seeded onto polyester Transwell inserts (0.4 µm, Corning) coated with Growth Factor Reduced Matrigel #356231. Cells were cultured for 7 days in intestinal differentiation medium (DMEM/F-12 containing 2% fetal bovine serum, 1% non-essential amino acids (Gibco), 1 × B27 (Gibco), 1 × N2 (Gibco), 1% penicillin/streptomycin (Gibco) and 2 mM L-glutamine (Gibco)) supplemented with 20 ng/ml EGF (R&D Systems) and 30 µM Forskolin (Sigma). ROCK inhibitor, y-27632 (final concentration 10 µM; Stem Cell Technologies), was added during the initial 24 h after seeding to reduce cell death. The cells were subsequently cultured for 12 days in intestinal differentiation medium supplemented with 20 ng/ml EGF, 30 µM Forskolin, 5 µM 5-aza-2′-deoxycytidine (Sigma), 20 µM PD98059 (Stem Cell Technologies) and 0.5 µM A-83–01 (Sigma). The medium was refreshed every 2–3 days. Barrier integrity was determined by measuring apical to basolateral translocation of Lucifer yellow (see Supplementary Data for a detailed description).
as §1
as §2, with “layers).” for “layers). After 60 minutes, all liquid was collected from the apical and basolateral compartment and the cells were lysed in 200 µL RIPA buffer (Thermo Fisher Scientific), and chemicals were quantified in the different compartments (apical, basolateral and cells) in order to calculate the mass balance.”

[4] = Transport study across Caco-2 cell layers; settings: human, Caco-2
Experimental: Human colorectal adenocarcinoma cells (Caco-2, HTB-37) were obtained from American Type Culture Collection (ATCC, Manassas, VA). Cells were cultured in a humidified incubator (37°C, 5% CO2) in Dulbecco’s modified Eagle’s medium (DMEM) supplemented with 10% heat-inactivated fetal bovine serum (Gibco, Thermo Fisher Scientific, Waltham, MA), 1% non-essential amino acids (Gibco) and 1% penicillin/streptomycin (Sigma). For experiments, Caco-2 cells below passage number 50 were used within 10 passages. They were harvested at 80% confluence using Trypsin/EDTA (0.25%/0.05%; PAN Biotech, Aidenbach, Germany) and seeded at a density of 4 × 10^5 cells/cm^2 into inserts with a polycarbonate membrane (0.4 µm pore, Corning, New York, NY). After 21 days of differentiation (using 500 µl cell culture medium in the apical and 1500 µl in the basolateral compartment), monolayer integrity was determined by measuring transepithelial electrical resistance (TEER) with a Millicell ERS Volt-Ohm meter (Millipore, Bedford, MA).
as §1, §2, §3

EpiIntestinal model = settings: apical to basolateral, ref Ayehunie et al. (2005); cited from earlier work
Caco-2 model = settings: cited from earlier work
hiPSC-derived IEC layers = test system: hiPSC-derived IEC layers; parameters: method as in Kabeya et al. ([2020]); settings: apical to basolateral, ref Kabeya et al. ([2020]); cited from earlier work

SMILES: CC(C)NCC(O)COc1ccc(CC(N)=O)cc1 (stereo not drawn) [Atenolol, atenolol]
- Fa (fraction absorbed in humans) [1]: 50%

SMILES: O=C(O)C(F)(F)C(F)(F)C(F)(F)C(F)(F)C(F)(F)C(F)(F)C(F)(F)F [PFOA, perfluorooctanoic acid]
- Papp A→B at 60 min, 1 µM [2]: 7.31 ± 0.43 ×10⁻⁶ cm/s
- Papp B→A at 60 min, 1 µM [2]: 6.99 ± 0.82 ×10⁻⁶ cm/s
- efflux ratio at 60 min, 1 µM [2]: 0.96
- Papp A→B at 60 min, 1 µM [3]: 3.27 ± 0.45 ×10⁻⁶ cm/s
- Papp B→A at 60 min, 1 µM [3]: 5.3 ± 0.42 ×10⁻⁶ cm/s
- efflux ratio at 60 min, 1 µM [3]: 1.62
- Papp A→B at 60 min, 1 µM [4]: 4.23 ± 0.41 ×10⁻⁶ cm/s
- Papp B→A at 60 min, 1 µM [4]: 5.75 ± 0.97 ×10⁻⁶ cm/s
- efflux ratio at 60 min, 1 µM [4]: 1.36

SMILES: CC(C)NCC(O)COc1cccc2ccccc12 (stereo not drawn) [Propranolol, propranolol]
- Average Papp A–B (EpiIntestinal model): 9.4 ± 5.4^b × 10^–6 cm/s
- Average Papp A - B (Caco-2 model; ref Artursson et al. 1991): 41.9 ×10⁻⁶ cm/s
- Average Papp A - B (Caco-2 model; ref Ayehunie et al. 2018): 12.9 ×10⁻⁶ cm/s
- Average Papp A - B (Caco-2 model; ref Grès et al. 1998): 34.4 ×10⁻⁶ cm/s
- Average Papp A - B (Caco-2 model; ref Logoyda et al. 2018): 36.13 ×10⁻⁶ cm/s
- Average Papp A - B (Caco-2 model; ref Nožinić et al. 2010): 0.12 ×10⁻⁶ cm/s
- Average Papp A - B (Caco-2 model; ref Walgren et al. 1999): 35.3 ×10⁻⁶ cm/s
- Average Papp A - B (Caco-2 model; ref Yazdanian et al. 1998): 21.8 ×10⁻⁶ cm/s
- Papp A→B at 60 min, 10 µM [3]: 26.7 ± 1.4 ×10⁻⁶ cm/s
- Papp B→A at 60 min, 10 µM [3]: 17.9 ± 0.93 ×10⁻⁶ cm/s
- Papp A→B at 60 min, 10 µM [4]: 11.8 ± 1.07 ×10⁻⁶ cm/s
- Papp B→A at 60 min, 10 µM [4]: 8.13 ± 0.12 ×10⁻⁶ cm/s

SMILES: CCCC(=O)Nc1ccc(OCC(O)CNC(C)C)c(C(C)=O)c1 (stereo not drawn) [Acebutolol, acebutolol]
- Average Papp A–B (EpiIntestinal model): 0.4 ± 0.1^a × 10^–6 cm/s
- Average Papp A - B (Caco-2 model; ref Ayehunie et al. 2018): 0.4 ×10⁻⁶ cm/s
- Average Papp A - B (Caco-2 model; ref Kabeya et al. 2020): 0.35 ×10⁻⁶ cm/s
- Average Papp A - B (Caco-2 model; ref Liang et al. 2000): 0.51 ×10⁻⁶ cm/s
- Average Papp A - B (Caco-2 model; ref Yazdanian et al. 1998): 0.51 ×10⁻⁶ cm/s
- Papp A→B at 60 min, 10 µM [3]: 1.95 ± 0.02 ×10⁻⁶ cm/s
- Papp B→A at 60 min, 10 µM [3]: 7.17 ± 0.27 ×10⁻⁶ cm/s
- efflux ratio at 60 min, 10 µM [3]: 3.67
- Average Papp A–B (hiPSC-derived IEC layers): 2.35 ± 0.88 × 10^–6 cm/s
- Fa (fraction absorbed in humans) [1]: 40%
- Papp A→B at 60 min, 10 µM [4]: 0.42 ± 0.03 ×10⁻⁶ cm/s
- Papp B→A at 60 min, 10 µM [4]: 3.09 ± 0.07 ×10⁻⁶ cm/s
- efflux ratio at 60 min, 10 µM [4]: 7.37

SMILES: O=S(=O)(O)C(F)(F)C(F)(F)C(F)(F)C(F)(F)C(F)(F)C(F)(F)C(F)(F)C(F)(F)F [PFOS, perfluorooctane sulfonate]
- Papp A→B at 60 min, 1 µM [2]: 5.97 ± 0.05 ×10⁻⁶ cm/s
- Papp B→A at 60 min, 1 µM [2]: 3.31 ± 0.22 ×10⁻⁶ cm/s
- efflux ratio at 60 min, 1 µM [2]: 0.55
- Papp A→B at 60 min, 1 µM [3]: 0.63 ± 0.08 ×10⁻⁶ cm/s
- Papp B→A at 60 min, 1 µM [3]: 0.82 ± 0.17 ×10⁻⁶ cm/s
- efflux ratio at 60 min, 1 µM [3]: 1.31
- Papp A→B at 60 min, 1 µM [4]: 2.88 ± 0.2 ×10⁻⁶ cm/s
- Papp B→A at 60 min, 1 µM [4]: 1.06 ± 11 ×10⁻⁶ cm/s
- efflux ratio at 60 min, 1 µM [4]: 0.37

SMILES: O=S(=O)(O)C(F)(F)C(F)(F)C(F)(F)C(F)(F)C(F)(F)C(F)(F)F [PFHxS, perfluorohexane sulfonate]
- Papp A→B at 60 min, 1 µM [2]: 12.5 ± 0.78 ×10⁻⁶ cm/s
- Papp B→A at 60 min, 1 µM [2]: 14.1 ± 0.67 ×10⁻⁶ cm/s
- efflux ratio at 60 min, 1 µM [2]: 1.13
- Papp A→B at 60 min, 1 µM [3]: 3.95 ± 0.47 ×10⁻⁶ cm/s
- Papp B→A at 60 min, 1 µM [3]: 6.71 ± 0.43 ×10⁻⁶ cm/s
- efflux ratio at 60 min, 1 µM [3]: 1.7
- Papp A→B at 60 min, 1 µM [4]: 8.78 ± 1.76 ×10⁻⁶ cm/s
- Papp B→A at 60 min, 1 µM [4]: 11.6 ± 0.2 ×10⁻⁶ cm/s
- efflux ratio at 60 min, 1 µM [4]: 1.33

SMILES: CC(=O)CC(c1ccccc1)c1c(O)c2ccccc2oc1=O (stereo not drawn) [Warfarin, warfarin]
- Average Papp A–B (EpiIntestinal model): 36.7 ± 16.8^a × 10^–6 cm/s
- Average Papp A - B (Caco-2 model; ref Artursson et al. 1991): 38.3 ×10⁻⁶ cm/s
- Average Papp A - B (Caco-2 model; ref Ayehunie et al. 2018): 28.6 ×10⁻⁶ cm/s
- Average Papp A - B (Caco-2 model; ref Gschwind et al. 2013): 22.7 ×10⁻⁶ cm/s
- Average Papp A - B (Caco-2 model; ref Yazdanian et al. 1998): 21.1 ×10⁻⁶ cm/s
- Papp A→B at 60 min, 10 µM [4]: 17.9 ± 1.39 ×10⁻⁶ cm/s
- Papp B→A at 60 min, 10 µM [4]: 24.5 ± 0.94 ×10⁻⁶ cm/s

SMILES: C=C[C@H]1C[N@@]2CC[C@H]1C[C@@H]2[C@@H](O)c1ccnc2ccc(OC)cc12 [Quinidine, quinidine]
- Average Papp A–B (EpiIntestinal model): 7.9 ± 2.7^a × 10^–6 cm/s
- Papp A→B at 60 min, 10 µM [3]: 22.3 ± 0.4 ×10⁻⁶ cm/s
- Papp B→A at 60 min, 10 µM [3]: 25.5 ± 1.17 ×10⁻⁶ cm/s

SMILES: O=C(O)C(F)(F)C(F)(F)C(F)(F)C(F)(F)C(F)(F)C(F)(F)C(F)(F)C(F)(F)F [PFNA, perfluorononanoic acid]
- Papp A→B at 60 min, 1 µM [2]: 8.48 ± 0.57 ×10⁻⁶ cm/s
- Papp B→A at 60 min, 1 µM [2]: 7.51 ± 0.5 ×10⁻⁶ cm/s
- efflux ratio at 60 min, 1 µM [2]: 0.89
- Papp A→B at 60 min, 1 µM [3]: 1.95 ± 0.27 ×10⁻⁶ cm/s
- Papp B→A at 60 min, 1 µM [3]: 2.88 ± 0.28 ×10⁻⁶ cm/s
- efflux ratio at 60 min, 1 µM [3]: 1.48
- Papp A→B at 60 min, 1 µM [4]: 4.55 ± 0.56 ×10⁻⁶ cm/s
- Papp B→A at 60 min, 1 µM [4]: 3.14 ± 0.33 ×10⁻⁶ cm/s
- efflux ratio at 60 min, 1 µM [4]: 0.69
